# In patent EP0326331B1, “Substituted quinolines and cinnolines” (Dow AgroSciences LLC, priority 1988, dated 1989):
# Read-outs that look alike come from different tables or passages of the source.
# How the values were obtained:
# Type in all cases: in vivo
# [1] = system: melon aphids (Aphis gossypii Glover); assay: Mite/insect screen, MA; details: percent mortality; for mortality at 200 ppm / mortality at 400 ppm: Aphis gossypii, read-out: MA RESULTS %
# How it was run: (§1)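 Foliar spray to runoff (10 psi), 1 h drying; aqueous dilutions from acetone/alcohol emulsifier stock. Mortality (%) after standard exposure.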
# [2] = system: Erysiphe graminis tritici (powdery mildew); assay: Test 1 greenhouse foliar spray screen, powdery mildew on wheat; details: for pest or weed control at 400 ppm: Blumeria graminis, foliar, Test 1, foliar spray on wheat, disease control rating at 400 ppm / 100 ppm, read-out: POWD MDEW; for POWD MDEW: disease control rating, foliar spray on wheat, 400 ppm (+++ at 100 ppm)
# [3] = system: southern armyworm (Spodopetra eridania Cramer); assay: Mite/insect screen, SAW; details: Spodoptera eridania, percent mortality, read-out: SAW RESULTS %
# How it was run: as §1
# [4] = system: Twospotted spider mites (Tetranychus urticae Koch); assay: Mite/insect screen, SM; details: for mortality at 200 ppm / mortality at 400 ppm: Tetranychus urticae, read-out: SM RESULTS %
# How it was run: as §1
# [5] = system: Botrytis cinerea (gray mold); assay: Test 1 greenhouse foliar spray screen, gray mold on grape berries; details: for pest or weed control at 400 ppm: Botrytis cinerea, foliar, Test 1, spray on grape berries, disease control rating at 400 ppm / 100 ppm; for GRAY MOLD: disease control rating, spray on grape berries, 400 ppm (+++ at 100 ppm)
# [6] = system: Pyricularia oryzae (rice blast); assay: whole plant or invertebrate; details: for pest or weed control at 400 ppm: Pyricularia oryzae, foliar, read-out: RICE BLAST, Test 1, foliar spray on rice, disease control rating at 400 ppm / 100 ppm; for RICE BLAST: disease control rating, foliar spray on rice, 400 ppm (+++ at 100 ppm)
# [7] = system: Cercospora beticola (leaf spot); assay: Test 1 greenhouse foliar spray screen, leaf spot on sugar beet; details: for pest or weed control at 400 ppm: Cercospora beticola, Test 1, foliar spray on sugar beet, disease control rating at 400 ppm / 100 ppm; for LEAF SPOT: disease control rating, foliar spray on sugar beet, 400 ppm (+++ at 100 ppm)
# [8] = system: Septoria tritici (leaf blotch); assay: Test 1 greenhouse foliar spray screen, leaf blotch on wheat; details: for pest or weed control at 400 ppm: Zymoseptoria tritici, Test 1, foliar spray on wheat, disease control rating at 400 ppm / 100 ppm, read-out: LEAF BLOT; for LEAF BLOT: disease control rating, foliar spray on wheat, 400 ppm (+++ at 100 ppm)
# corn rootworm = assay: Mite/insect screen, CRW; details: for mortality at 12 ppm / mortality at 24 ppm: read-out: CRW RESULTS %
# How it was run: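 Following dissolution in equal parts acetone and alcohol with 23 g/L and 13 g/L emulsifier blends and dilution with water, test solutions were scored for percent mortality at the end of standard exposures.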
# [9] = system: Venturia inaequalis (apple scab); assay: Test 1 greenhouse foliar spray screen, apple scab on apple seedling; details: for pest or weed control at 400 ppm: Venturia inaequalis, Test 1, foliar spray on apple seedling, disease control rating at 400 ppm / 100 ppm, read-out: APPL SCAB; for APPL SCAB: disease control rating, foliar spray on apple seedling, 400 ppm (+++ at 100 ppm)
# [10] = system: Puccinia recondita tritici (leaf rust); assay: Test 1 greenhouse foliar spray screen, leaf rust on wheat; details: for pest or weed control at 400 ppm: Puccinia recondita, foliar, Test 1, foliar spray on wheat, disease control rating at 400 ppm / 100 ppm; for LEAF RUST: disease control rating, foliar spray on wheat, 400 ppm (+++ at 100 ppm)
# [11] = system: Pseudoperonospora cubensis (downy mildew); assay: Test 1 greenhouse foliar spray screen, downy mildew on squash; details: for pest or weed control at 400 ppm: Pseudoperonospora cubensis, foliar, Test 1, foliar spray on squash, disease control rating at 400 ppm / 100 ppm, read-out: DOWN MDEW; for DOWN MDEW: disease control rating, foliar spray on squash, 400 ppm (+++ at 100 ppm)
# [12] = foliar, rate 200 ppm, foliar spray on squash
# [13] = foliar, percent mortality, rate 200 ppm, foliar spray on squash
# [14] = percent mortality, SAW, SM & MA RATE 200 PPM
# [15] = percent mortality, SAW, SM & MA RATE 400 PPM
# [16] = percent mortality, CRW RATE 12.00 PPM
# [17] = percent mortality, CRW RATE 24.00 PPM
# [18] = foliar, rate 400 ppm, foliar spray on squash
# [19] = percent mortality, CRW rate 12.00 ppm
Structure (SMILES),"mortality at 200 ppm [1, 12] [%]","mortality at 200 ppm [3, 12] [%]","mortality at 200 ppm [4, 13] [%]","mortality at 200 ppm ([1]; SAW, SM & MA RATE 200 PPM) [%]","mortality at 400 ppm ([1]; SAW, SM & MA RATE 400 PPM) [%]",POWD MDEW [2],"mortality at 200 ppm ([3]; SAW, SM & MA RATE 200 PPM) [%]","mortality at 400 ppm ([3]; SAW, SM & MA RATE 400 PPM) [%]","mortality at 200 ppm [4, 14] [%]","mortality at 400 ppm [4, 15] [%]",GRAY MOLD [5],RICE BLAST [6],LEAF SPOT [7],LEAF BLOT [8],mortality at 12 ppm (corn rootworm; [16]) [%],mortality at 24 ppm (corn rootworm; [17]) [%],APPL SCAB [9],LEAF RUST [10],DOWN MDEW [11],mortality at 12 ppm (corn rootworm; [19]) [%],further results
"Fc1cccc2c(NCCc3ccc(Cl)cc3Cl)cc(NCCc3ccc(Cl)cc3Cl)nc12 [Example 190, N,N'-bis[2-(2,4-dichlorophenyl)ethyl]-8-fluoro-2,4-quinolinediamine]",0,0,0,,,,,,,,,,,,,,,,,,pest or weed control at 400 ppm [2]: 0 to 19%; pest or weed control at 400 ppm [5]: 0 to 19%; pest or weed control at 400 ppm [6]: 20 to 89%; pest or weed control at 400 ppm [7]: 0 to 19%; pest or weed control at 400 ppm [8]: 0 to 19%; mortality at 12 ppm (corn rootworm): 0%; pest or weed control at 400 ppm [9]: 0 to 19%; pest or weed control at 400 ppm [10]: 90 to 100%; pest or weed control at 400 ppm [11]: 0 to 19%
"Fc1cccc2c(NCCC3=CCCCC3)ccnc12 [Example 143, N-[2-(1-cyclohexenyl)ethyl]-8-fluoro-4-quinolinamine]",,,,0,0,++ (90-100% control at 400 ppm),0,0,0,0,- (0-19% control at 400 ppm),++ (90-100% control at 400 ppm),+ (20-89% control at 400 ppm),+ (20-89% control at 400 ppm),0,0,- (0-19% control at 400 ppm),+++ (90-100% control at 100 ppm),+++ (90-100% control at 100 ppm),,
"CCN(CCc1ccc(Cl)cc1)c1ccnc2c(F)cccc12 [Example 105, N-[2-(4-chlorophenyl)ethyl]-N-ethyl-8-fluoro-4-quinolinamine]",,,,80,50,+++ (90-100% control at 100 ppm),30,0,100,0,- (0-19% control at 400 ppm),++ (90-100% control at 400 ppm),+ (20-89% control at 400 ppm),+ (20-89% control at 400 ppm),0,0,- (0-19% control at 400 ppm),+++ (90-100% control at 100 ppm),+++ (90-100% control at 100 ppm),,activity as miticides ([4]; summary statement in the description): particularly excellent activity
"Clc1ccc(CCNc2ccc3c(NCCc4ccc(Cl)cc4)ccnc3c2)cc1 [Example 186, N,N'-bis[2-(4-chlorophenyl)ethyl]-4,7-quinolinediamine]",0,0,0,,,- (0-19% control at 400 ppm),,,,,- (0-19% control at 400 ppm),- (0-19% control at 400 ppm),+ (20-89% control at 400 ppm),+ (20-89% control at 400 ppm),,,- (0-19% control at 400 ppm),+ (20-89% control at 400 ppm),+++ (90-100% control at 100 ppm),0,"mortality at 400 ppm [1, 18]: 0%; mortality at 400 ppm [3, 18]: 0%; mortality at 400 ppm ([4]; foliar, percent mortality, rate 400 ppm, foliar spray on squash): 0%; mortality at 24 ppm (corn rootworm; percent mortality, CRW rate 24.00 ppm): 0%"
"Fc1cc(F)c2nccc(NCCc3ccc(Cl)cc3)c2c1 [Example 41, N-[2-(4-chlorophenyl)ethyl]-6,8-difluoro-4-quinolinamine]",,,,0,0,+ (20-89% control at 400 ppm),80,40,0,0,- (0-19% control at 400 ppm),++ (90-100% control at 400 ppm),+++ (90-100% control at 100 ppm),+ (20-89% control at 400 ppm),0,0,- (0-19% control at 400 ppm),+++ (90-100% control at 100 ppm),++ (90-100% control at 400 ppm),,
"Clc1cccc2c(OCCc3ccccc3)ccnc12 [Example 207, 8-chloro-4-(2-phenylethoxy)quinoline]",0,0,0,,,,,,,,,,,,,,,,,0,pest or weed control at 400 ppm [2]: 90 to 100%; pest or weed control at 400 ppm [5]: 0 to 19%; pest or weed control at 400 ppm [6]: 90 to 100%; pest or weed control at 400 ppm [7]: 20 to 89%; pest or weed control at 400 ppm [8]: 90 to 100%; pest or weed control at 400 ppm [9]: 20 to 89%; pest or weed control at 400 ppm [10]: 90 to 100%; pest or weed control at 400 ppm [11]: 90 to 100%
"FC(F)(F)c1cccc2c(NCCc3ccccc3)ccnc12 [Example 99, N-(2-phenylethyl)-8-(trifluoromethyl)-4-quinolinamine]",,,,0,,- (0-19% control at 400 ppm),0,,0,,- (0-19% control at 400 ppm),++ (90-100% control at 400 ppm),+ (20-89% control at 400 ppm),- (0-19% control at 400 ppm),0,,- (0-19% control at 400 ppm),+++ (90-100% control at 100 ppm),+++ (90-100% control at 100 ppm),,
"Fc1cccc2c(NCCc3ccsc3)ccnc12 [Example 175, 8-fluoro-N-[2-(3-thienyl)ethyl]-4-quinolinamine]",0,0,0,,,+ (20-89% control at 400 ppm),,,,,- (0-19% control at 400 ppm),+ (20-89% control at 400 ppm),- (0-19% control at 400 ppm),+ (20-89% control at 400 ppm),,,- (0-19% control at 400 ppm),+++ (90-100% control at 100 ppm),+++ (90-100% control at 100 ppm),0,
"Fc1ccc(CCNc2ccnc3c(F)cccc23)cc1 [Example 78, 8-fluoro-N-[2-(4-fluorophenyl)ethyl]-4-quinolinamine]",,,,0,,+ (20-89% control at 400 ppm),20,,0,,- (0-19% control at 400 ppm),++ (90-100% control at 400 ppm),+++ (90-100% control at 100 ppm),+ (20-89% control at 400 ppm),0,,- (0-19% control at 400 ppm),+++ (90-100% control at 100 ppm),+++ (90-100% control at 100 ppm),,"MA RESULTS % ([1]; SAW, SM & MA RATE 200 PPM): 0%; SM RESULTS % [4, 14]: 0%; CRW RESULTS % (corn rootworm; [16]): 0%"
